Results: patent publication US20210230548A1, “NATURAL KILLER CELLS ENGINEERED TO EXPRESS CHIMERIC ANTIGEN RECEPTORS WITH IMMUNE CHECKPOINT BLOCKADE” (Board of Regents, The University of Texas System, priority 2018, published 2021)

Columns and labels:
[1] = test system: iC9/CAR.19/IL-15 NK cells; assay: Activation of suicide gene in vitro with dimerizer AP1903; type: cell-based
Procedure: (§1) Activation of suicide gene in vitro and validation in vivo: The small-molecule dimerizer AP1903 (10 nM), was added to CB-NK cell cultures for 4 h. The elimination of transduced cells was evaluated by Annexin-V/Live dead staining. The efficacy of the suicide gene was also tested in vivo by treating tumor-bearing mice that had received iC9/CAR.19/IL-15+ NK cells (control or CISH KO) with two doses of AP1903 (50 μg each) intraperitoneally, 2 days apart on days 7 and 9. Two other groups of mice (control and CISH KO) served as control without AP1903 treatment. All mice were sacrificed on day 12, and blood and organs (Liver, spleen and bone marrow) were collected, processed and flow cytometry was performed to determine CAR-NK fraction and viability.

[2] = test system: iC9/CAR.19/IL-15 CB-NK cells; assay: Suicide gene validation in vivo in Raji tumor-bearing mice; design: species or system mouse; settings: dimerizer on days 7 and 9 post NK infusion, sacrifice day 12; both control and CISH KO cells
Procedure: as §1

CISH locus = assay: GUIDE-seq off-target identification in HEK293 cells constitutively expressing Cas9; type: cell-based; settings: GuideSeq
Source text: Off-target Identification: The GUIDE-seq method was employed for unbiased discovery of off-target editing events (Tsai et al., 2015). In this study, HEK293 cells that constitutively express the S pyogenes Cas9 nuclease (“HEK293-Cas9” cells) were the source of Cas9. Alt-R® gRNA complexes were formed by combining Alt-R tracrRNA and Alt-R crRNA XT at a 1:1 molar ratio. gRNA complexes were delivered by nucleofection using the Amaxa™ Nucleofector™ 96-well Shuttle™ System (Lonza, Basel, Switzerland). For each nucleofection, 3.5×10^5 HEK293-Cas9 cells were washed with 1×PBS, resuspended in 20 μL solution SF (Lonza) and combined with 10 μM gRNA along with 0.5 μM GUIDE-seq dsDNA donor fragment. This mixture was transferred into one well of a Nucleocuvette™ Plate (Lonza) and electroporated using protocol 96-DS-150. DNA was extracted 72 hrs after electroporation using the GeneJET Genomic DNA purification kit (Thermo Fisher Scientific). NGS library preparation, sequencing, and operation of the GUIDE-seq software was performed as previously described except that Needleman-Wunch alignment was incorporated (Tsai et al., 2016).

Row | Molecule | time to apoptosis of transduced NK cells ([1]; 10 nM) | apoptosis of transduced NK cells ([1]; 10 nM added to cultures) | reduction in iC9/CAR.19/IL-15 CB-NK cells in blood and tissues (liver, spleen, bone marrow) [2] | off-target sites / events (CISH locus)
1 | CC[C@H](C(=O)N1CCCC[C@H]1C(=O)O[C@H](CCc1ccc(OC)c(OC)c1)c1cccc(OCC(=O)NCCNC(=O)COc2cccc([C@@H](CCc3ccc(OC)c(OC)c3)OC(=O)[C@@H]3CCCCN3C(=O)[C@@H](CC)c3cc(OC)c(OC)c(OC)c3)c2)c1)c1cc(OC)c(OC)c(OC)c1 [AP1903] | ≤ 4 h | induced apoptosis of transduced NK cells | striking reduction | 
2 | crRNA2: crRNA targeting CISH exon 4, sequence TGTACAGCAGTGGCTGGTGG (SEQ ID NO:2) (listed as DNA, chemistry not given here) |  |  |  | even higher frequencies of off-target events
